The subject of this assay is D-serine. The assay is described as follows: PK-PD evaluation in rats: D-serine levels in cerebellum after oral dosing. It counts as in vivo. As to conditions: rat cerebellum, 6 hours after PO dosing, dose normalized to 10 mg/kg of the acid; mean ± spread (n). As for the experimental part:
Rats (Harlan male Sprague) (N=3) were dosed orally with an amount of test compound, suspended in 45% (w/v) hydroxy-β-cyclodextrin vehicle, dose normalized to 10 mg/kg of the corresponding carboxylic acid. Additional male cannulated rats (N=3) were dosed orally with the parent carboxylic acid, suspended in 45% (w/v) hydroxy-β-cyclodextrin vehicle, at 10 mg/kg. Animals were sacrificed at pre-determined time points (e.g., 0.5, 2 and/or 6 hours post administration) with an N=3 at each time point. At sacrifice, trunk blood was collected into tubes containing potassium EDTA, which were then centrifuged to permit isolation of plasma. The cerebellum was dissected from each animal. Plasma and cerebellum samples were stored at −80° C. until samples were analyzed using a SCIEX API2000 or SCIEX API5000 LC/MS/MS. Samples were analyzed for the amount of corresponding parent acid, D-serine, and/or the amount of test compound.
Conversion of test compounds to 4H-furo[3,2-b]pyrrole-5-carboxylic acid (“acid”; 77) in rats was evaluated according to General Procedure 12. 4H-furo[3,2-b]pyrrole-5-carboxylic acid and D-serine levels in plasma and cerebellum were measured. Animals were sacrificed at 6 hours post administration. In Table 6, “[D-serine] cerebellum” refers to D-serine levels, in nmol/g, in the rat cerebellum. In Table 6, “[acid] cerebellum” refers to the concentration, in μM, of the 4H-furo[3,2-b]pyrrole-5-carboxylic acid in the cerebellum. In Table 6, “[acid] plasma” refers to the concentration, in μM, of the 4H-furo[3,2-b]pyrrole-5-carboxylic acid in the plasma. The row labeled “acid”, denotes the data obtained from dosing 4H-furo[3,2-b]pyrrole-5-carboxylic acid. The row labeled “vehicle” denotes the data obtained from dosing vehicle, and the remaining row in the table denote the data obtained from dosing the test compounds.

The source of these data is patent US20110034434A1, “PRODRUGS OF FUSED HETEROCYCLIC INHIBITORS OF D-AMINO ACID OXIDASE” (SEPRACOR INC., priority 2009, published 2011).

With `CCOC(=O)c1cc2occc2n1COCCOC(=O)C(N)C(C)C` (stereo in doubt) [compound 68, (S)-ethyl 4-((2-(2-amino-3-methylbutanoyloxy)ethoxy)methyl)-4H-furo[3,2-b]pyrrole-5-carboxylate], the “[D-serine] cerebellum” value is 5 ± 0.4(3) nmol/g.

Take `O=C(OCn1ccnc1)c1cc2occc2[nH]1` [compound 28, (1H-imidazol-1-yl)methyl 4H-furo[3,2-b]pyrrole-5-carboxylate]: the “[D-serine] cerebellum” value was 19 ± 1.9(3) nmol/g.

Turning to `CC(OC(=O)OC(C)(C)C)OC(=O)c1cc2occc2[nH]1` (stereo not shown) [compound 37, 1-(tert-butoxycarbonyloxy)ethyl 4H-furo[3,2-b]pyrrole-5-carboxylate], the “[D-serine] cerebellum” value was 18 ± 1.1(3) nmol/g.

For `CCCC(=O)OC(C)OC(=O)c1cc2occc2[nH]1` (stereo not shown) [compound 44, 1-(butyryloxy)ethyl 4H-furo[3,2-b]pyrrole-5-carboxylate], the “[D-serine] cerebellum” value is recorded as 21 ± 1.3(3) nmol/g.

In the case of `O=C(OCn1c(C(=O)O)cc2occc21)c1ccccc1` [compound 60, 4-(benzoyloxymethyl)-4H-furo[3,2-b]pyrrole-5-carboxylic acid], the “[D-serine] cerebellum” value was 13 ± 1.1(3) nmol/g.

Turning to `CCCCOC(=O)c1cc2occc2[nH]1` [compound 5, butyl 4H-furo[3,2-b]pyrrole-5-carboxylate], the “[D-serine] cerebellum” value was 18 ± 1.2(3) nmol/g.

In the case of `CC1(C)OC(=O)c2cc3occc3n21` [compound 2, 11,11-dimethyl-5,10-dioxa-1-azatricyclo[6.3.0.0^2,6]undeca-2(6),3,7-trien-9-one], the “[D-serine] cerebellum” value is recorded as 17 ± 1.0(3) nmol/g.

For `O=C(OC1OC(=O)c2ccccc21)c1cc2occc2[nH]1` (stereo not shown) [compound 74, 3-oxo-1,3-dihydroisobenzofuran-1-yl 4H-furo[3,2-b]pyrrole-5-carboxylate], the “[D-serine] cerebellum” value is listed as 13 ± 1.2(3) nmol/g.

On to `CCC(OC(C)=O)OC(=O)c1cc2occc2[nH]1` (stereo not shown) [compound 45, 1-acetoxypropyl 4H-furo[3,2-b]pyrrole-5-carboxylate], for which the “[D-serine] cerebellum” value was 22 ± 1.9(3) nmol/g.

In the case of `CCOC(=O)c1cc2occc2n1COC(=O)C(C)C` [compound 65, ethyl 4-(isobutyryloxymethyl)-4H-furo[3,2-b]pyrrole-5-carboxylate], the “[D-serine] cerebellum” value is on record as 11 ± 2.6(3) nmol/g.

For the compound `CC(=O)OCOC(=O)c1cc2occc2n1COC(C)=O` [compound 71, acetoxymethyl 4-(acetoxymethyl)-4H-furo[3,2-b]pyrrole-5-carboxylate], the “[D-serine] cerebellum” value was 14 ± 0.9(3) nmol/g.

Regarding `CC(C)COC(=O)c1cc2occc2[nH]1` [compound 7, isobutyl 4H-furo[3,2-b]pyrrole-5-carboxylate], the “[D-serine] cerebellum” value is on record as 19 ± 1.5(3) nmol/g.

On to `O=C(OCCOC(=O)c1cc2occc2[nH]1)c1cc2occc2[nH]1` [compound 55, ethane-1,2-diyl bis(4H-furo[3,2-b]pyrrole-5-carboxylate)], for which the “[D-serine] cerebellum” value is 13 ± 1.1(3) nmol/g.

With `CN(C)CCOC(=O)c1cc2occc2[nH]1` [compound 32, 2-(dimethylamino)ethyl 4H-furo[3,2-b]pyrrole-5-carboxylate], the “[D-serine] cerebellum” value is listed as 9 ± 0.7(3) nmol/g.

As to `CC1OC(=O)c2cc3occc3n21` (stereo not shown) [compound 3, 11-methyl-5,10-dioxa-1-azatricyclo[6.3.0.0^2,6]undeca-2(6),3,7-trien-9-one], the “[D-serine] cerebellum” value is 17 ± 1.0(3) nmol/g.

As to `O=C(OCCn1ccnc1)c1cc2occc2[nH]1` [compound 27, 2-(1H-imidazol-1-yl)ethyl 4H-furo[3,2-b]pyrrole-5-carboxylate], the “[D-serine] cerebellum” value is on record as 17 ± 0.6(3) nmol/g.

`CN1CCN(C(=O)c2cc3occc3[nH]2)CC1` [compound 58, (4H-furo[3,2-b]pyrrol-5-yl)(4-methylpiperazin-1-yl)methanone]: the “[D-serine] cerebellum” value was 5 ± 0.3(3) nmol/g.

Regarding `CC(=O)OCOC(=O)c1cc2occc2[nH]1` [compound 38, acetoxymethyl 4H-furo[3,2-b]pyrrole-5-carboxylate], the “[D-serine] cerebellum” value was 19 ± 4.4(4) nmol/g.

As to `CC(=O)OC(OC(=O)c1cc2occc2[nH]1)C(C)C` (stereo not shown) [compound 40, 1-acetoxy-2-methylpropyl 4H-furo[3,2-b]pyrrole-5-carboxylate], the “[D-serine] cerebellum” value is 22 ± 2.7(3) nmol/g.

In the case of `CCCCCCCOC(=O)c1cc2occc2[nH]1` [compound 6, heptyl 4H-furo[3,2-b]pyrrole-5-carboxylate], the “[D-serine] cerebellum” value is given as 18 ± 0.7(3) nmol/g.

Take `O=C(OCc1ccccc1)c1cc2occc2[nH]1` [compound 9, benzyl 4H-furo[3,2-b]pyrrole-5-carboxylate]: the “[D-serine] cerebellum” value is 21 ± 0.4(3) nmol/g.

For the compound `CCCOC(=O)c1cc2occc2[nH]1` [compound 4, propyl 4H-furo[3,2-b]pyrrole-5-carboxylate], the “[D-serine] cerebellum” value is on record as 20 ± 1.3(3) nmol/g.

Take `CCN(CC)C(=O)COC(=O)c1cc2occc2[nH]1` [compound 23, 2-(diethylamino)-2-oxoethyl 4H-furo[3,2-b]pyrrole-5-carboxylate]: the “[D-serine] cerebellum” value is listed as 18 ± 2.3(3) nmol/g.

Regarding `CC(C)C(=O)OCOC(=O)c1cc2occc2[nH]1` [compound 47, isobutyryloxymethyl 4H-furo[3,2-b]pyrrole-5-carboxylate], the “[D-serine] cerebellum” value is 22 ± 3.0(3) nmol/g.

In the case of `NC(=O)CNC(=O)c1cc2occc2[nH]1` [compound 57, N-(2-amino-2-oxoethyl)-4H-furo[3,2-b]pyrrole-5-carboxamide], the “[D-serine] cerebellum” value is recorded as 5 ± 0.5(3) nmol/g.

`CC(=O)OC(C)OC(=O)c1cc2occc2[nH]1` (stereo not shown) [compound 33, 1-acetoxyethyl 4H-furo[3,2-b]pyrrole-5-carboxylate]: the “[D-serine] cerebellum” value was 19 ± 1.4(3) nmol/g.

Turning to `CCOC(=O)c1cc2occc2n1COC(=O)c1ccccc1` [compound 59, ethyl 4-(benzoyloxymethyl)-4H-furo[3,2-b]pyrrole-5-carboxylate], the “[D-serine] cerebellum” value is 11 ± 1.9(3) nmol/g.

On to `CCC(=O)OC(C)OC(=O)c1cc2occc2[nH]1` (stereo not shown) [compound 34, 1-(propionyloxy)ethyl 4H-furo[3,2-b]pyrrole-5-carboxylate], for which the “[D-serine] cerebellum” value is reported as 20 ± 1.7(3) nmol/g.

`NC(=O)c1cc2occc2[nH]1` [compound 56, 4H-furo[3,2-b]pyrrole-5-carboxamide]: the “[D-serine] cerebellum” value is on record as 7 ± 0.7(2) nmol/g.

For the compound `CCOC(=O)c1cc2occc2n1COC(C)=O` [compound 64, ethyl 4-(acetoxymethyl)-4H-furo[3,2-b]pyrrole-5-carboxylate], the “[D-serine] cerebellum” value is 14 ± 3.6(3) nmol/g.

`O=C(OCOC(=O)c1cc2occc2[nH]1)c1cc2occc2[nH]1` [compound 41, methylene bis(4H-furo[3,2-b]pyrrole-5-carboxylate)]: the “[D-serine] cerebellum” value is recorded as 14 ± 0.2(3) nmol/g.

As for `O=C(OCCl)c1cc2occc2[nH]1` [compound 76, chloromethyl 4H-furo[3,2-b]pyrrole-5-carboxylate], the “[D-serine] cerebellum” value is recorded as 12 ± 1.5(3) nmol/g.

In the case of `CC(=O)OCn1c(C(=O)O)cc2occc21` [compound 66, 4-(acetoxymethyl)-4H-furo[3,2-b]pyrrole-5-carboxylic acid], the “[D-serine] cerebellum” value was 12 ± 0.7(3) nmol/g.

Consider `O=C1OCC(OC(=O)c2cc3occc3[nH]2)O1` (stereo not shown) [compound 73, 2-oxo-1,3-dioxolan-4-yl 4H-furo[3,2-b]pyrrole-5-carboxylate], for which the “[D-serine] cerebellum” value was 24 ± 2.0(2) nmol/g.
